Laboratory results as given in ChEMBL document CHEMBL1136318, “Synthesis and X-ray crystal structures of substituted fluorobenzene and benzoquinone inhibitors of the tissue factor VIIa complex” (Bioorg Med Chem Lett, 2003).

Columns and labels:
Coagulation factor X = Coagulation factor X (Homo sapiens, UniProt P00742); assay: Inhibitory activity against coagulation factor X
Prothrombin = Prothrombin (Homo sapiens, UniProt P00734); assay: Inhibitory activity against thrombin

Coagulation factor X, sequence (P00742 41-179 limits assumed): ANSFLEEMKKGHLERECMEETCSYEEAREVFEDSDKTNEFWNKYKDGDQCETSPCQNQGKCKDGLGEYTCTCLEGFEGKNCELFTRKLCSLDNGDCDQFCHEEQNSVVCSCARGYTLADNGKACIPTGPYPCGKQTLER
Coagulation factor X, sequence (P00742 235-488 limits assumed): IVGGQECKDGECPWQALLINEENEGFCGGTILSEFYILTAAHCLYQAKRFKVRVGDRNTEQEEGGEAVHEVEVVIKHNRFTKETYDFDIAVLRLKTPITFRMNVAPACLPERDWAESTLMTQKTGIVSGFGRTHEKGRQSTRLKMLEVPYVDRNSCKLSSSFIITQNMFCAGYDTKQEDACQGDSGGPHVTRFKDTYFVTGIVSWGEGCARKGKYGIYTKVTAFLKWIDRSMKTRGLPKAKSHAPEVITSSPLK

| IC50 (Coagulation factor X) | IC50 (Prothrombin) | Structure (SMILES) |
| --- | --- | --- |
| > 30 µM | – | CC(C)Nc1ccc(-c2cccc(N)c2)c(CC(=O)NCc2ccc(C(=N)N)cc2)c1F |
| – | > 30 µM | CC(C)/N=C1\C=C(O)C(c2ccccc2)=C(CC(=O)NCc2ccc(C(=N)N)cc2)C1=O |
